Laboratory results reported in patent EP0156224A2, “Novel benzoxathiin derivative, process for preparing them and pharmaceutical composition” (SUNTORY LIMITED, priority 1984, dated 1985).
Where two headings read alike, the source gives them in different places. Blank lines part the entries; values can stand above or below the molecule they belong to.

Tests used:
[1] = tested on: β-Receptor; assay: β-receptor blocking effect: 3H-dihydroalprenolol binding to synaptosome membrane of rat brain
Description: Spraque-Dawley male rats having 150 - 200 g body weight were decapitated, and the brains were quickly taken out and, after decortication, frozen at -70°C. After freezing overnight at -70°C, the thawed brain was homogenized with a buffer [0.25 mole sucrose, 5 mmole tris(hydroxymethyl)aminomethane hydrochloride, 1 mmole magnesium chloride, pH 7.4] in an amount of 8 times the weight of the brain. The homogenate was centrifuged at 800 x g for 20 minutes, and the supernatant was centrifuged at 14,000 x g for 14 minutes, the deposit of which was washed three times with the above-mentioned buffer. The deposit finally obtained was suspended again in a buffer of 75 mmole tris(hydroxymethyl)aminomethane and 25 mmole magnesium chloride (pH 7.4) to form a membrane specimen.
To 50 1 of the membrane specimen were added 50 1 of ^3H-dihydroalprenolol (^3H-OHA) and 50 1 of the mixture of the test frug and the buffer, such that the total volume was adjusted to 150 1, and the mixture was incubated at 37°C for 10 minutes.
The reaction was stopped by adding an ice-cooled mixture of 50 mmole tris(hydroxymethyl)aminomethane hydrochloride and 17 mmole magnesium chloride (pH 7.4), and the mixture was filtered under reduced pressure through a Whatman GF/B glassfiber. The filter was washed three times and dried, and a toluene type scintillator was added to measure the radioactivity.
. In the measurement, the amount obtained by subtracting the bondings obtained in the presence of 10^-5 mole propranolol from the total bondings was considered to represent the specific bondings of the S-receptor. In addition, the determination of protein was carried out according to the method of Lowry et al. [Lowry, O.H. et al., J. Biol. Chem., 193, 265-275 (1951)].

[2] = tested on: ddy male mouse; assay: Anti-arrhythmic effect: prevention of chloroform-induced ventricular flutter and fibrillation; type: in vivo; settings: ip, 0.5 h, read-out: Anti-arrhythmic effect (ED50)
Description: When a compound showing an anti-arrhythmic effect is previously administered, such an irregular ventricular appearance is prevented. The compound of this invention was intraperioneally administered in various dosages to the groups of 29 - 40 mice. After 30 minutes the mice were subjected to the inhalation of chloroform, and the preventive ratios of the venticular flutter and fibrillation were measured for respective dosages.

[3] = in vivo; settings: mouse, ddy male mice, mortality within 1 week
[4] = tested on: SHR (spontaneous hypertensive rat); assay: Effect on mean blood pressure in conscious spontaneously hypertensive rats; type: in vivo; settings: for mean blood pressure % Exchange: conscious SHR, mean ±SEM
From the text: In order to measure the blood pressure of a SHR (spontaneous hypertensive rat), a polyethylene tube was inserted into an artery to a level of the abdominal aorta through the crural artery, and the other end of the tube was tightly stoppered by a metal rod, extended subcutaneously and exposed out of the body at the posterior of the neck and fixed by suturation to the surrounding skin. The tube was filled with 500 U of heparin.
On the day subsequent to the operation, the blood pressure was measured without anesthetization or restriction using a pressure transducer and continously recorded on a thermal recording system together with the heart rate which was measured by driving a tachometer with the pulse wave of blood pressure.
The test drugs were dissolved in physiological saline and administered using a sound (p.o.)

[5] = 10^-5 mole test compound, 10 µM
[6] = intraperitoneal, chloroform inhalation after 30 minutes, mice
[7] = iv, caudal vein, read-out: Acute toxicity (LD50) intra-venous
[8] = po, in stomach, read-out: Acute toxicity (LD50) in stomach

- β-Receptor blocking effect Inhibition (%) [1, 5]: 73.9%
- β-Receptor blocking effect Inhibition (%) ([1]; 10^-6 mole test compound, 1 µM): 35.4%
SMILES: CNCC(O)COc1cccc2c1OS(=O)(=O)CC2 (stereo not drawn) [Example 1, 8-(3-methylamino-2-hydroxypropoxy)-3,4-dihydro-1,2-benzoxathiin-2,2-dioxide]

- β-Receptor blocking effect Inhibition (%) [1, 5]: 62.6%
- β-Receptor blocking effect Inhibition (%) ([1]; 10^-6 mole test compound, 1 µM): 17.1%
SMILES: CN(C)CC(O)COc1cccc2c1OS(=O)(=O)CC2 (stereo not drawn) [Example 2, 8-(3-dimethylamino-2-hydroxypropoxy)-3,4-dihydro-1,2-benzoxathiin-2,2-dioxide]

SMILES: CC(C)NCC(O)COc1cccc2c1OS(=O)(=O)CC2 (stereo not drawn) [Example 3, 8-(3-isopropylamino-2-hydroxypropoxy)-3,4-dihydro-1,2-benzoxathiin-2,2-dioxide]
- β-Receptor blocking effect Inhibition (%) [1, 5]: 91.6%
- β-Receptor blocking effect Inhibition (%) ([1]; 10^-6 mole test compound, 1 µM): 97.6%
- ED50 [2, 6]: 0.23 mg/kg
- LD50 at 168 h [3, 7]: 68.2 mg/kg
- LD50 at 168 h [3, 8]: > 500 mg/kg

SMILES: CC(C)(C)NCC(O)COc1cccc2c1OS(=O)(=O)CC2 (stereo not drawn) [Example 4, 8-(3-t-butylamino-2-hydroxypropoxy)-3,4-dihydro-l,2-benzoxathiin-2,2-dioxide]
- β-Receptor blocking effect Inhibition (%) [1, 5]: 91.4%
- β-Receptor blocking effect Inhibition (%) ([1]; 10^-6 mole test compound, 1 µM): 96.3%
- ED50 [2, 6]: 0.03 mg/kg
- mean blood pressure % Exchange ([4]; 0.1 mg/kg p.o., 10 min): 6.4 ± 3.5%
- mean blood pressure % Exchange ([4]; 0.1 mg/kg p.o., 20 min): 4.6 ± 3.2%
- mean blood pressure % Exchange ([4]; 0.1 mg/kg p.o., 30 min): 4.1 ± 2.6%
- mean blood pressure % Exchange ([4]; 0.1 mg/kg p.o., 60 min): -4.2 ± 3.8%
- mean blood pressure % Exchange ([4]; 0.1 mg/kg p.o., 90 min): -6.5 ± 3.2%
- mean blood pressure % Exchange ([4]; 0.1 mg/kg p.o., 120 min): -7.3 ± 5.9%
- mean blood pressure % Exchange ([4]; 0.1 mg/kg p.o., 3 hr): -8.9 ± 3.0%
- mean blood pressure % Exchange ([4]; 0.1 mg/kg p.o., 4 hr): -13.0 ± 2.5 %
- mean blood pressure % Exchange ([4]; 0.1 mg/kg p.o., 5 hr): -14.7 ± 2.5 %
- mean blood pressure % Exchange ([4]; 0.1 mg/kg p.o., 6 hr): -14.8 ± 2.4 %
- mean blood pressure % Exchange ([4]; 0.1 mg/kg p.o., 24 hr): -2.8 ± 4.2%
- mean blood pressure % Exchange ([4]; 1 mg/kg p.o., 10 min): 1.4 ± 1.2%
- mean blood pressure % Exchange ([4]; 1 mg/kg p.o., 20 min): -0.3 ± 1.7%
- mean blood pressure % Exchange ([4]; 1 mg/kg p.o., 30 min): -8.1 ± 2.9 %
- mean blood pressure % Exchange ([4]; 1 mg/kg p.o., 60 min): -12.0 ± 4.3 %
- mean blood pressure % Exchange ([4]; 1 mg/kg p.o., 90 min): -10.9 ± 2.8 %
- mean blood pressure % Exchange ([4]; 1 mg/kg p.o., 120 min): -14.5 ± 4.3 %
- mean blood pressure % Exchange ([4]; 1 mg/kg p.o., 3 hr): -16.3 ± 4.1 %
- mean blood pressure % Exchange ([4]; 1 mg/kg p.o., 4 hr): -20.0 ± 3.7 %
- mean blood pressure % Exchange ([4]; 1 mg/kg p.o., 5 hr): -24.5 ± 4.0 %
- mean blood pressure % Exchange ([4]; 1 mg/kg p.o., 6 hr): -24.1 ± 3.3 %
- mean blood pressure % Exchange ([4]; 1 mg/kg p.o., 24 hr): -11.5 ± 6.2%
- duration of hypotensive effect ([4]; result in words, SHR, p.o., after 24 hours): remains effective even after 24 hours
- hypotensive effect ([4]; result in words, SHR, p.o., compared with carteolol): excellent hypotensive effect at almost the same level as carteolol
- LD50 at 168 h [3, 7]: 59.2 mg/kg
- LD50 at 168 h [3, 8]: > 500 mg/kg

SMILES: CCC(C)NCC(O)COc1cccc2c1OS(=O)(=O)CC2 (stereo not drawn) [Example 5, 8-(3-sec-butylamino-2-hydroxypropoxy)-3,4-dihydro-1,2-benzoxathiin-2,2-dioxide]
- β-Receptor blocking effect Inhibition (%) [1, 5]: 95.3%
- β-Receptor blocking effect Inhibition (%) ([1]; 10^-6 mole test compound, 1 µM): 83.0%
- ED50 [2, 6]: 1.3 mg/kg
- LD50 at 168 h [3, 7]: 68.2 mg/kg
- LD50 at 168 h [3, 8]: > 500 mg/kg

- β-Receptor blocking effect Inhibition (%) [1, 5]: 81.9%
- β-Receptor blocking effect Inhibition (%) ([1]; 10^-6 mole test compound, 1 µM): 41.7%
SMILES: CC(C)CNCC(O)COc1cccc2c1OS(=O)(=O)CC2 (stereo not drawn) [Example 6, 8-(3-isobutylamino-2-hydroxypropoxy)-3,4-dihydro-l,2-benzoxathiin-2,2-dioxide]

- β-Receptor blocking effect Inhibition (%) [1, 5]: 90.1%
- β-Receptor blocking effect Inhibition (%) ([1]; 10^-6 mole test compound, 1 µM): 75.2%
SMILES: COc1ccc(CCNCC(O)COc2cccc3c2OS(=O)(=O)CC3)cc1OC (stereo not drawn) [Example 7, 8-[3-(3,4-dimethoxyphenethylamino)-2-hydroxy-propoxy]-3,4-dihydro-1,2-benzoxathiin-2,2-dioxide]

SMILES: CCCC(=O)Nc1ccc(OCC(O)CNC(C)C)c(C(C)=O)c1 (stereo not drawn) [acebutolol, reference compound]
- ED50 [2, 6]: 47 mg/kg

SMILES: CC(C)(C)NCC(O)COc1cccc2c1CCC(=O)N2 (stereo not drawn) [carteolol, reference compound]
- ED50 [2, 6]: 400 mg/kg
- mean blood pressure % Exchange ([4]; 0.1 mg/kg p.o., 10 min): 1.4 ± 2.1%
- mean blood pressure % Exchange ([4]; 0.1 mg/kg p.o., 20 min): -9.2 ± 4.0%
- mean blood pressure % Exchange ([4]; 0.1 mg/kg p.o., 30 min): -11.3 ± 3.9 %
- mean blood pressure % Exchange ([4]; 0.1 mg/kg p.o., 90 min): -18.1 ± 3.7 %
- mean blood pressure % Exchange ([4]; 0.1 mg/kg p.o., 120 min): -12.7 ± 6.5%
- mean blood pressure % Exchange ([4]; 0.1 mg/kg p.o., 3 hr): -15.4 ± 3.3 %
- mean blood pressure % Exchange ([4]; 0.1 mg/kg p.o., 4 hr): -15.1 ± 3.7 %
- mean blood pressure % Exchange ([4]; 0.1 mg/kg p.o., 5 hr): -18.8 ± 1.3 %
- mean blood pressure % Exchange ([4]; 0.1 mg/kg p.o., 6 hr): -20.8 ± 1.7 %
- mean blood pressure % Exchange ([4]; 0.1 mg/kg p.o., 24 hr): -2.1 ± 2.5%
- mean blood pressure % Exchange ([4]; 1 mg/kg p.o., 10 min): 2.5 ± 3.2%
- mean blood pressure % Exchange ([4]; 1 mg/kg p.o., 20 min): -1.4 ± 2.6%
- mean blood pressure % Exchange ([4]; 1 mg/kg p.o., 30 min): -5.1 ± 3.6%
- mean blood pressure % Exchange ([4]; 1 mg/kg p.o., 60 min): -11.7 ± 3.3 %
- mean blood pressure % Exchange ([4]; 1 mg/kg p.o., 90 min): -14.7 ± 3.6 %
- mean blood pressure % Exchange ([4]; 1 mg/kg p.o., 120 min): -23.8 ± 3.0 %
- mean blood pressure % Exchange ([4]; 1 mg/kg p.o., 3 hr): -23.1 ± 4.8 %
- mean blood pressure % Exchange ([4]; 1 mg/kg p.o., 4 hr): -24.4 ± 4.2 %
- mean blood pressure % Exchange ([4]; 1 mg/kg p.o., 5 hr): -24.7 ± 4.7 %
- mean blood pressure % Exchange ([4]; 1 mg/kg p.o., 6 hr): -21.3 ± 4.2 %
- mean blood pressure % Exchange ([4]; 1 mg/kg p.o., 24 hr): -2.1 ± 4.5%
- LD50 at 168 h [3, 7]: 38 mg/kg

SMILES: CC(C)NCC(O)COc1cccc2ccccc12 (stereo not drawn) [propranolol, reference compound]
- ED50 [2]: 2.2 mg/kg
